The test system of data set [1] is incision skin wound in rats. Briefly: Breaking strength of incision skin wound in rats after a single local injection. The conditions noted are these: for Breaking strength of skin wound, X: Example IV, in thermosensitive polymer (TSP), Sprague-Dawley female rats; for Breaking strength of skin wound, X / Effect on breaking strength versus non-treated controls: 12 days; for Breaking strength / Change in % of control / Effect on breaking strength versus non-treated controls: Example II; for Breaking strength: 12 days after wounding, single injection underneath wound line, DPA 5 mg/0.25 ml, hexyl ester 7.5 mg/0.25 ml, Mean +/− SD; for Change in % of control: breaking strength 12 days after wounding; for Effect on breaking strength versus non-treated controls: in saline; for Effect on breaking strength of the healing wound: Example III, in polyethylene glycol 600. In kind it is in vivo. As for the experimental part:
Young adult rats have the hair clipped in the dorsum midline to make a rectangle having the dimensions of about 4 cm by about 9 cm. A full thickness skin incision in the midline of the dorsum of the rat is made about 8 cm long. The wound is closed with 9 to 10 interrupted sutures.
Various treatments are injected in between the sutures, underneath the closed wounds with a 8 cm long gastric needle, inserted at the distal site of the incision wound. After 12 days the animals are terminated, the skin wound is dissected with 2 cm intact skin at both sides. A specially designed multiple razor blade cutter with blades 0.5 cm apart is placed onto the skin, stretched loosely onto a cork lined board and hammered to obtain several (10 to 12) equal width skin strips, having the wound in the middle. Individual skin strips are attached to grips of a tensiometer and breaking strength is determined.
In this Example II, Applicants utilized the above-recited test method to evaluate local administration of unmodified lathyrogens and/or chemically modified lathyrogens, administered in a polymeric carrier.
In certain embodiments, the polymeric carrier comprised a mixture of polylactic and polyglycolic acid of defined molecular weights and proportion, dissolved in N-methylpyrolidone. This polymer was obtained from Atrix Company (CO) as Atrigel 30 which was supposed to be degraded in the tissues within 30 days. […] The rate of its degradation—hydrolysis, determines the rate of the release of the lathyrogen dispersed therein.
The tested lathyrogens, Compound I or derivative thereof, namely D-penicillamine-hexyl ester HCl, i.e. Compound III, wherein R1 is hexyl, was used at the dose of 5 mg/0.25 ml of polymeric carrier (for DPA), or 7.5 mg of Compound III/0.25 ml of polymeric carrier. The formulation was injected after closing the skin wound between the sutures, underneath the wound line. Saline solutions of BAPN and DPA were also administered at the same dose and volume.
Four rats were used in each group. The data recited in Table II are presented as Mean +/− Standard Deviation, based on 20 to 28 determinations in every group. The testing of the breaking strength of the skin wound strips was done 12 days after inflecting the wound. […]

Data set [2] has as its system Schiff base crosslinks of the collagen. The data set can be described thus: Swelling of skin samples in various solutions (collagen crosslink cleavage). The conditions noted are these: for Cleavage of crosslinks once reduced: crosslinks reduced with sodium borohydrate; for Cleavage of non reduced Schiff base crosslinks of collagen: non reduced skin discs. More on the design: species or system nude mice. From the text: This example documents one of the effects of DPA on the integrity of collagen structure. […] Once the crosslink is reduced (with sodium borohydrate) a stable covalent crosslinks is formed, resistant to any chemical means to break it. The Example also documents that only substances having —SH and —NH2 groups free are effective. Therefore N acetyl cystein is not effective due to the blocking its —NH2 group.
Method: Skin of 4 months old nude mice was dissected, spread on a board and with a 0.5 cm diameter punch several discs were obtained. These were kept in a moist chamber to prevent drying. The discs were weighted and immersed in the following solutions for 1 hour incubation: • 1. Phosphate buffered saline (0.1 M, pH 7.3)-control; • 2. PBS with 10 mg sodium borohydrate in 10 ml; • 3. Some discs from group 1 and 2 were further incubated for 1 hour PBS containing 100 mg cystein, or D-penicillamine or N-acetyl cystein; • 4. After 1 hour incubation in the above solutions, the skin samples were placed into 0.45% acetic acid (pH 3.5) for another hour.
After each incubation time the skins samples were blotted on a filter paper and weighted on a analytical balance with the sensitivity to 0.1 mg.
Swelling in Table 1 is given as mg weight/0.5 cm disc of skin. The data are shown as Mean +/− standard deviation (“SD”).
In this Example the swelling capacity was used as an indicator of the structural stability, namely number of crosslinks in the collagen molecules. More crosslinked collagen swells less than when the bonds are cleaved, resuming the structure of “young” collagen.

In data set [3] the test system is esophageal stricture. The conditions noted are these: young adult rabbits; cited from earlier work.
Data set [4] concerns esophageal stricture. The conditions noted are these: given systemically, without bougienage; cited from earlier work.
The test system of data set [5] is scar contracture of intracardiac prosthetic patches. The conditions noted are these: systemic; cited from earlier work.
The next data set relates to lacerated tendons. The conditions noted are these: systemic administration; cited from earlier work.
A further data set has as its system peritendinous adhesions. The conditions noted are these: 1-2-g/day per os, cited from earlier work.
Data set [6] concerns function of filter surgery. The conditions noted are these: systemic administration; cited from earlier work.
The test system of the next data set is sclera puncture wound. The conditions noted are these: locally injected; cited from earlier work.
Another data set has as its system intraoccular pressure. The conditions noted are these: topical, cited from earlier work.
The mark [7] stands for this setting: 0.5 cm skin discs, 1 hour PBS, 1 hour PBS containing 100 mg substance, then 1 hour 0.45% acetic acid (pH 3.5).

Entries after “also recorded” stand apart in the source; their conditions may differ.

Consider `CCCCCCOC(=O)[C@H](N)C(C)(C)S.Cl` [DPA - lipophilic, D-penicillamine-hexyl ester HCl], for which the “Breaking strength of skin wound, X” value in data set [1] is recorded as 321.

As to `N[C@@H](CS)C(=O)O` [CYSH, cystein], in [2] (setting [7]), the “Swelling of skin samples, Mean” value is given as 84.0 mg weight/0.5 cm disc of skin. Moreover, in data set [2], the “Cleavage of crosslinks once reduced” value is “no effective” and the “Cleavage of non reduced Schiff base crosslinks of collagen” value is “effectively cleaving”.

Regarding `COc1cc2c(c(OC)c1OC)-c1ccc(OC)c(=O)cc1[C@@H](NC(C)=O)CC2` [colchicine], in the data set with esophageal stricture [3], the “Severity of esophageal stricture” value is “severe stricture” and the “Wound healing” value was “delayed wound healing”.

Turning to `[BH4-].[Na+]` [SBH + control, sodium borohydrate], the “Swelling of skin samples, Mean” value in data set [2] (discs first incubated 1 hour in PBS with 10 mg sodium borohydrate in 10 ml (crosslinks reduced), then substance, then 0.45% acetic acid (pH 3.5)) is recorded as 27.5 mg weight/0.5 cm disc of skin.

On to `N#CCCN` [BAPN, Beta-aminopropionitrile], for which, in data set [1], the Breaking strength was 735 +/− 40 g/0.5 cm, the “Change in % of control” value is given as “+14%” and the “Effect on breaking strength versus non-treated controls” value is “no differences in the breaking strength”. Besides, the “Stricture of the esophageal lumen” value with esophageal stricture [4] is recorded as “preventing the stricture of the lumen”. In addition, the “Scar contracture” value in data set [5] is listed as “inhibition of scar contracture”. Moreover, the “Gliding function of lacerated tendons” value in the data set with lacerated tendons is “significant improvement in the gliding function”. In the data set with peritendinous adhesions, the “Effect in patients after tenolysis” value is on record as “beneficial effect”. The “Side toxic effects” value in the data set with peritendinous adhesions (study discontinued) is on record as “several side toxic effects”.

As to `CC(=O)N[C@@H](CS)C(=O)O` [N-acetylCYSH, N-acetyl cystein], in data set [2] (setting [7]), the “Swelling of skin samples, Mean” value is 32.2 mg weight/0.5 cm disc of skin. The “Cleavage of non reduced Schiff base crosslinks of collagen” value in data set [2] was “not effective”.

Turning to DPA-hexanal acetone adduct, the “Effect on breaking strength of the healing wound” value in data set [1] is reported as “no effect”.

Turning to `CC(C)(S)C(N)C(=O)O` (stereo in doubt) [DPA, D-Penicillamine], the “Swelling of skin samples, Mean” value in data set [2] (setting [7]) is given as 84.0 mg weight/0.5 cm disc of skin. In data set [2], the “Cleavage of crosslinks once reduced” value is “no effective” and the “Cleavage of non reduced Schiff base crosslinks of collagen” value is “cleaves the non reduced covalent Schiff base crosslinks; also recorded: effectively cleaving”. Moreover, in data set [1], the Breaking strength is recorded as 695 +/− 38 g/0.5 cm, the “Change in % of control” value is listed as −2% and the “Effect on breaking strength versus non-treated controls” value is on record as “no differences in the breaking strength”. Moreover, the “Effect on the function of filter surgery” value in data set [6] is “not effective”. Also, in the data set with sclera puncture wound, the “Collagen deposition in adjacent muscle” value is reported as “decreased” and the “Wound contraction after puncturing the sclera” value is reported as “inhibited wound contraction”. The “Severity of esophageal stricture” value with esophageal stricture [3] is “less severe stricture”.

`CCCCCCNCCC#N` [BAPN - lipophilic, hexyl-beta-aminopropionitrile]: in [1], the “Effect on breaking strength of the healing wound” value is reported as “effectiveness” and the “Breaking strength of skin wound, X” value is 226.

Consider `N#CCCN.N#CCCN.O=C(O)/C=C/C(=O)O` [BAPN-F], for which, in the data set with intraoccular pressure (after filtration surgery), the “Time postoperative pressure was maintained” value is recorded as 26.4+−11 weeks. In addition, in the data set on intraoccular pressure (difficult cases of glaucoma), the Overall success rate is recorded as 74%. For the same molecule, the Postoperative intraoccular pressure in the data set on intraoccular pressure (preoperative pressure 40 mm Hg) is listed as 19 mm Hg. For the same molecule, in the data set with sclera puncture wound, the “Collagen deposition in adjacent muscle” value is recorded as “decreased” and the “Wound contraction after puncturing the sclera” value is “inhibited wound contraction”.

The record behind these values is patent publication US20050276855A1, “Composition and method using local application of lipophilic lathyrogens sustained release formulations” (priority 2004, published 2005).
